# Legend:
# [1] = target: T1, potassium ion channel hERG (Homo sapiens, UniProt Q12809); test: Assay 5 hERG assay (patch clamp, CHO cells over-expressing hERG); assay type: cell-based; details: SyncroPatch 384PE, room temperature, geometric mean, read-out: Assay 5 (hERG Hu CHO if EPh CR-Syncro) GMean IC50
# T1 construct: expressed in transfected cells; host or cells: Chinese hamster ovary K1 (CHO)
# In short: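 hERG currents recorded by automated patch clamp at room temperature in CHO-K1 cells, 6-point cumulative concentrations. SyncroPatch runs used KF-based internal (pH 7.2) and NMDG-containing external solution (pH 7.4), 0.33% DMSO; QPatchII runs used 2% or 0.4% DMSO. Only wells meeting seal-resistance and current-size criteria kept.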
# [2] = target: GSK3β (Glycogen synthase kinase-3 beta) (Homo sapiens, UniProt P49841); test: Assay 6 GSK3β assay (ThermoFisher Z-Lyte FRET); assay type: biochemical; details: ATP Conc: 10 μM, geometric mean; read-out: Assay 6 (GSK3β FRET-Z-Lyte Cr) GMean IC50
# In short: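 Z-Lyte FRET: 0.22-0.92 ng kinase with 2 μM Ser/Thr 09 peptide in HEPES pH 7.5, MgCl2, EGTA, 60 min at room temperature, then 60 min development. Compounds in 1% DMSO, 10-point 3-fold series from 10 μM; sigmoidal dose-response fit.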
# PCSK9 [3] = target: T2, PCSK9 (Homo sapiens, UniProt Q8NBP7, G670E/V474I); test: biochemical
# PCSK9 [4] = target: T2, PCSK9; test: Assay 3 PCSK9 LDL-C uptake assay in HepG2 cells; assay type: cell-based; parameters: TEV site (C); His6 (C); host or cells: added to HepG2 (ATCC #HB-8065); details: 125 nM PCSK9, pHrodo Red-LDL, read-out: Assay 3 LDL uptake potency
# In short: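 HepG2 cells were plated for 24 h, then exposed for 24 h at 37 °C to compounds (half-log series, 10 μM top) with 125 nM exogenous PCSK9. pHrodo Red-LDL ([…]) uptake was then imaged by fluorescence at 4 h and 24 h. Signal was normalized as % effect between DMSO and 100 nM evolocumab, with a four-parameter logistic fit.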
# T2 sequence (Q8NBP7 with tags, fused parts or gaps V474I/G670E): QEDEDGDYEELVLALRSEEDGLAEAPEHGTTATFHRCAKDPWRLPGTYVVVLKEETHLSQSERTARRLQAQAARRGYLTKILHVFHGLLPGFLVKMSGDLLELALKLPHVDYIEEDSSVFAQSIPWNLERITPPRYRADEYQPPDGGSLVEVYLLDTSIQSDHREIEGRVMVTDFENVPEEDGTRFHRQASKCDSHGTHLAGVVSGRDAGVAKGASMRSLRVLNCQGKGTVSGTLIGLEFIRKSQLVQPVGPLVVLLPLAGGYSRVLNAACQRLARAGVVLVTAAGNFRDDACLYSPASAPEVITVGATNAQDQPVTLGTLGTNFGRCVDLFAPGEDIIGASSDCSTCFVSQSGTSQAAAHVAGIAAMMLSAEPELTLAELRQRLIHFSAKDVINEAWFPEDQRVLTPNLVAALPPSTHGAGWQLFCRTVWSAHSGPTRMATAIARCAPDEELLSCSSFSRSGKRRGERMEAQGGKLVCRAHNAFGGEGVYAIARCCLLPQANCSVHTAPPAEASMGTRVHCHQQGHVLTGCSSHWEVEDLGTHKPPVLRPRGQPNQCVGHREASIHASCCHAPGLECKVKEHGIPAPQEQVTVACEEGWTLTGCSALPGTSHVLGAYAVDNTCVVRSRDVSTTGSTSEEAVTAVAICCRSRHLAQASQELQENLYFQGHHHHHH
# T1 sequence (Q12809 whole entry): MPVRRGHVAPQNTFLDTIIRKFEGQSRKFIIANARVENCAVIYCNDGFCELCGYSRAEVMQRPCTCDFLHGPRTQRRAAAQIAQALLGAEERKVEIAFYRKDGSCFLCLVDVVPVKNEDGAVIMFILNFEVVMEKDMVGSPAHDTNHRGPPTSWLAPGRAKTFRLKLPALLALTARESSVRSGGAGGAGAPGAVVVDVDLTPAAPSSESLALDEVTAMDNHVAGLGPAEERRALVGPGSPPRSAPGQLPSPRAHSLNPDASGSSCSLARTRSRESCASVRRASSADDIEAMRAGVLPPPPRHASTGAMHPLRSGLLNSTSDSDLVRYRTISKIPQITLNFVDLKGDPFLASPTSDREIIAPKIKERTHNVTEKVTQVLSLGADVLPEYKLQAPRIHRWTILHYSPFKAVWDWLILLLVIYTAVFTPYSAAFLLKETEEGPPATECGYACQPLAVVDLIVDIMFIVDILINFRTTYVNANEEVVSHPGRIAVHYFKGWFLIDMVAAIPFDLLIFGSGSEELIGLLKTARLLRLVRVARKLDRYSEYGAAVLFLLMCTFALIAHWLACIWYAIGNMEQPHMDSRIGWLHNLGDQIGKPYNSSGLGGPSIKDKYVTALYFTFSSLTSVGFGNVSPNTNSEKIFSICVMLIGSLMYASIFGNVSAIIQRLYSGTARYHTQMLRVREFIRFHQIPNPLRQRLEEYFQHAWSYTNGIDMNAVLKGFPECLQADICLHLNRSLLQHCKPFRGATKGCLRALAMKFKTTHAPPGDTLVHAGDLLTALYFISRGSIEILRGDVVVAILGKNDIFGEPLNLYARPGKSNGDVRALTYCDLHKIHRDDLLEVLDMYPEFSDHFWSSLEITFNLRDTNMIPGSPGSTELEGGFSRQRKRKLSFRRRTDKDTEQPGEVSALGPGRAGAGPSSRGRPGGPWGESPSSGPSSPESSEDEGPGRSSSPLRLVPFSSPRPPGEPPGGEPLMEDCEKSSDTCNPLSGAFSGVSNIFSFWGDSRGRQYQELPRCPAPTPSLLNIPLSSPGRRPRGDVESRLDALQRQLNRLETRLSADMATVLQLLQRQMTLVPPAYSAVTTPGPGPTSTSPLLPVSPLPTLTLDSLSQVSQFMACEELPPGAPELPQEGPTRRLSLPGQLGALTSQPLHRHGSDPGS
# GSK3β (Glycogen synthase kinase-3 beta), sequence (P49841 whole entry): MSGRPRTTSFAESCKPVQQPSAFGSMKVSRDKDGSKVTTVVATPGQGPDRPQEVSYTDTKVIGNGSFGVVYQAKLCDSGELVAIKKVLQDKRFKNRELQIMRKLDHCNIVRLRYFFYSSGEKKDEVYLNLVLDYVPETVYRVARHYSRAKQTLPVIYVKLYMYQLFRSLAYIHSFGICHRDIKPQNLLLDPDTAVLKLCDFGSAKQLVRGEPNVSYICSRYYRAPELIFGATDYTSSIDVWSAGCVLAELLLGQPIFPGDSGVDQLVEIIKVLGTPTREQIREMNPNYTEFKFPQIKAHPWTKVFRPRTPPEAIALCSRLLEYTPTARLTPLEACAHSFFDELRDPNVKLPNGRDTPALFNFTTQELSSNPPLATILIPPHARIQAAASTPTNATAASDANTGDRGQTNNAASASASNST
Structure (SMILES),IC50 [1] [µM],IC50 [2] [µM],IC50 (PCSK9 [3]) [µM],EC50 (PCSK9 [4]) [µM]
"Cc1cnc(N[C@H]2CC[C@H](Nc3ccc(-n4cc(Cl)ccc4=O)cn3)C2)nn1 [Example 134, 5-Chloro-6′-(((1S,3S)-3-((6-methyl-1,2,4-triazin-3-yl)amino)cyclopentyl)amino)-2H-[1,3′-bipyridin]-2-one]",> 40,0.439,0.0084,0.5
"N#Cc1cccn(-c2ccc(N[C@H]3CC[C@H](Nc4ncc(C5CC5)nn4)C3)nc2)c1=O [Example 58, 6′-(((1S,3S)-3-((6-Cyclopropyl-1,2,4-triazin-3-yl)amino)cyclopentyl)amino)-2-oxo-2H-[1,3′-bipyridine]-3-carbonitrile]",> 40,> 10,0.0016,0.1
"Cn1c(=O)n(-c2ccc(N[C@H]3CC[C@H](Nc4ncc(C5CC5)nn4)C3)nc2)c2cc(C#N)ccc21 [Example 116, 3-(6-(((1S,3S)-3-((6-Cyclopropyl-1,2,4-triazin-3-yl)amino)cyclopentyl)amino)pyridin-3-yl)-1-methyl-2-oxo-2,3-dihydro-1H-benzo[d]imidazole-5-carbonitrile]",12,> 10,0.0007,0.1
"O=c1c(OC(F)(F)F)cccn1-c1ccc(N[C@H]2CC[C@H](Nc3ncc(C4CC4)nn3)C2)nc1 [Example 52, 6′-(((1S,3S)-3-((6-Cyclopropyl-1,2,4-triazin-3-yl)amino)cyclopentyl)amino)-3-(trifluoromethoxy)-2H-[1,3′-bipyridin]-2-one]",39.9,> 10,0.0023,0.1
"O=c1ccccn1-c1ccc(N[C@H]2CC[C@H](Nc3ncc(C4CC4)nn3)C2)nc1 [Example 50, 6′-(((1S,3S)-3-((6-Cyclopropyl-1,2,4-triazin-3-yl)amino)cyclopentyl)amino)-2H-[1,3′-bipyridin]-2-one]",> 40,> 10,0.008,0.3
"Cc1cnc(N[C@H]2CC[C@H](Nc3ccc(-n4c(=O)n(C)c5ccc(C#N)cc54)cn3)C2)nn1 [Example 210, 1-Methyl-3-(6-(((1S,3S)-3-((6-methyl-1,2,4-triazin-3-yl)amino)cyclopentyl)amino)pyridin-3-yl)-2-oxo-2,3-dihydro-1H-benzo[d]imidazole-5-carbonitrile]",> 40.1,> 10,0.0009,0.1
"C#CCNC(=O)c1cnc(N[C@H]2CC[C@H](Nc3ccc(-n4ccccc4=O)cn3)C2)nn1 [Example 69, 3-(((1S,3S)-3-((2-Oxo-2H-[1,3′-bipyridin]-6′-yl)amino)cyclopentyl)amino)-N-(prop-2-yn-1-yl)-1,2,4-triazine-6-carboxamide]",> 40,> 10,0.02,0.2
"Cc1cnc(N[C@H]2CC[C@H](Nc3ccc(-n4cc(C#N)ccc4=O)cn3)C2)nn1 [Example 128, 6′-(((1S,3S)-3-((6-Methyl-1,2,4-triazin-3-yl)amino)cyclopentyl)amino)-2-oxo-2H-[1,3′-bipyridine]-5-carbonitrile]",> 40,> 10,0.02,0.8
"Cc1cnc(N[C@H]2CC[C@H](Nc3ccc(-n4cccc(Cl)c4=O)cn3)C2)nn1 [Example 129, 3-Chloro-6′-(((1S,3S)-3-((6-methyl-1,2,4-triazin-3-yl)amino)cyclopentyl)amino)-2H-[1,3′-bipyridin]-2-one]",> 40,4.85,0.0016,0.1
"Cc1cnc(N[C@H]2CC[C@H](Nc3ccc(-n4c(=O)n(C)c5cccnc54)cn3)C2)nn1 [Example 212, 1-Methyl-3-(6-(((1S,3S)-3-((6-methyl-1,2,4-triazin-3-yl)amino)cyclopentyl)amino)pyridin-3-yl)-1,3-dihydro-2H-imidazo[4,5-b]pyridin-2-one]",> 40.1,> 10,0.0018,0.1
"COc1ccc(=O)n(-c2ccc(N[C@H]3CC[C@H](Nc4ncc(C)nn4)C3)nc2)c1 [Example 133, 5-Methoxy-6′-(((1S,3S)-3-((6-methyl-1,2,4-triazin-3-yl)amino)cyclopentyl)amino)-2H-[1,3′-bipyridin]-2-one]",> 40,0.032,0.017,0.4
"Cc1cccn(-c2ccc(N[C@H]3CC[C@H](Nc4ncc(C5CC5)nn4)C3)nc2)c1=O [Example 66, 6′-(((1S,3S)-3-((6-Cyclopropyl-1,2,4-triazin-3-yl)amino)cyclopentyl)amino)-3-methyl-2H-[1,3′-bipyridin]-2-one]",> 40,> 10,0.0017,0.1

# Source: patent US20240228469A1, “PCSK9 INHIBITORS AND METHODS OF USE THEREOF” (AstraZeneca AB, priority 2022, published 2024)
